Drawing on ChEMBL document CHEMBL4602694, “Suppression of Drug-Resistant Non-Small-Cell Lung Cancer with Inhibitors Targeting Minichromosomal Maintenance Protein” (J Med Chem, 2020), this text covers Activity for one compound.

Active and inactive are the calls of the source. No cut-off for these calls is given here.

In test [1] the test system is NCI-H1975. The test can be described thus: Induction of apoptosis in human NCI-H1975 cells assessed as increase in cleaved caspase 8 level at 140 nM incubated upto 72 hrs by immunoblotting analysis. The class given is functional, cell-based.
The target of test [2] is T1, DNA replication licensing factor MCM6 (Homo sapiens) (UniProt Q14566).
T1 sequence (whole entry): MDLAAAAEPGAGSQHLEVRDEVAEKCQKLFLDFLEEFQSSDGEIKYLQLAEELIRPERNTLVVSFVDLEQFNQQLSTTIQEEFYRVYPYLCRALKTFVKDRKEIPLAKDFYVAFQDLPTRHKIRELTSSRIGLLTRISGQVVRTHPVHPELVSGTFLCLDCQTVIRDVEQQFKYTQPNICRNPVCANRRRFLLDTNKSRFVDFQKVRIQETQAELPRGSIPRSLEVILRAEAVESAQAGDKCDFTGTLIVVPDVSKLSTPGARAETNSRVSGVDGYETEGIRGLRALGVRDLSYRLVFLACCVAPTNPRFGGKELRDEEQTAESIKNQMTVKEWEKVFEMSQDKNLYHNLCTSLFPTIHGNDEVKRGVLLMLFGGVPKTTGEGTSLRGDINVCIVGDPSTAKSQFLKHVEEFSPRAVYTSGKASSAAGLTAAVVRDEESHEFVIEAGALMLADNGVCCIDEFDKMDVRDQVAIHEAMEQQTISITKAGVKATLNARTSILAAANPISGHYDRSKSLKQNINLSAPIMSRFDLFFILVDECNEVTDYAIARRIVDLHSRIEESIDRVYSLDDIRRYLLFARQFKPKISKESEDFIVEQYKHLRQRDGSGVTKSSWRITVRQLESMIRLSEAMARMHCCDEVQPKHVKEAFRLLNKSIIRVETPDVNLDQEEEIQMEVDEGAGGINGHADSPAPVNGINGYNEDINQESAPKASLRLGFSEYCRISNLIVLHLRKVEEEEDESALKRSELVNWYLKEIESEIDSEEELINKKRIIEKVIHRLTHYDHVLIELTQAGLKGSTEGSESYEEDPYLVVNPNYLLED
The test can be described thus: Induction of ubiquitination of MCM6 in human H3255 cells incubated for 24 hrs by immunoblot analysis. Conditions: NCI-H3255. It is filed as cell-based.

Test [3] addresses DNA replication licensing factor MCM2 (Homo sapiens) (UniProt P49736). The test can be described thus: Induction of ubiquitination of MCM2 in human NCI-H1975 cells incubated for 24 hrs by immunoblot analysis (reference value: 1). It is filed as cell-based.
Test [4] deals with T1, DNA replication licensing factor MCM6 (Homo sapiens). The test can be described thus: Induction of ubiquitination of MCM6 in human NCI-H1975 cells incubated for 24 hrs by immunoblot analysis (reference value: 1). The class given is cell-based.
In test [5] the target is T2, DNA replication licensing factor MCM3 (Homo sapiens) (UniProt P25205).
T2 sequence (whole entry): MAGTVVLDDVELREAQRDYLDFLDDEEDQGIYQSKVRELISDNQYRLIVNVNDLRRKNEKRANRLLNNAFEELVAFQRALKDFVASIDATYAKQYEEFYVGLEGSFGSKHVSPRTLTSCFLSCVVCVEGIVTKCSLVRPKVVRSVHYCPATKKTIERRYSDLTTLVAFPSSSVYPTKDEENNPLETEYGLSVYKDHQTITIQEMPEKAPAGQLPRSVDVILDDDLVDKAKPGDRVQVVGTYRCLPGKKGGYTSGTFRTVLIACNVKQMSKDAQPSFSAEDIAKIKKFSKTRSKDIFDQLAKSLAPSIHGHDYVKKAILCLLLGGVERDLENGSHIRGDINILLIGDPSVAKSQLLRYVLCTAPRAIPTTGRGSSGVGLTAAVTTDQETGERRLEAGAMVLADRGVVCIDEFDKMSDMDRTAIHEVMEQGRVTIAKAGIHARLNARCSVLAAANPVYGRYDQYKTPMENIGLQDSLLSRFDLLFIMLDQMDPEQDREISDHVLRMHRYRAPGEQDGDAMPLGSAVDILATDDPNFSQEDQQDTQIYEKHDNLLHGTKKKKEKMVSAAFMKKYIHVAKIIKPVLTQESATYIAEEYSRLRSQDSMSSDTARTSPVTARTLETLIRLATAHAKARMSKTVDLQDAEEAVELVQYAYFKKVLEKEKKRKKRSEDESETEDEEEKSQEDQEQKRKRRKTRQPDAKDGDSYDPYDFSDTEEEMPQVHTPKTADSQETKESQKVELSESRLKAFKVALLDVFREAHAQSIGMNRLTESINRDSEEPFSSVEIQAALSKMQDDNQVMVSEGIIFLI
The test can be described thus: Induction of ubiquitination of MCM3 in human NCI-H1975 cells incubated for 72 hrs by immunoblot analysis (reference value: 1). It is filed as cell-based.

In test [6] the target is T3, DNA replication licensing factor MCM4 (Homo sapiens) (UniProt P33991).
T3 sequence (whole entry): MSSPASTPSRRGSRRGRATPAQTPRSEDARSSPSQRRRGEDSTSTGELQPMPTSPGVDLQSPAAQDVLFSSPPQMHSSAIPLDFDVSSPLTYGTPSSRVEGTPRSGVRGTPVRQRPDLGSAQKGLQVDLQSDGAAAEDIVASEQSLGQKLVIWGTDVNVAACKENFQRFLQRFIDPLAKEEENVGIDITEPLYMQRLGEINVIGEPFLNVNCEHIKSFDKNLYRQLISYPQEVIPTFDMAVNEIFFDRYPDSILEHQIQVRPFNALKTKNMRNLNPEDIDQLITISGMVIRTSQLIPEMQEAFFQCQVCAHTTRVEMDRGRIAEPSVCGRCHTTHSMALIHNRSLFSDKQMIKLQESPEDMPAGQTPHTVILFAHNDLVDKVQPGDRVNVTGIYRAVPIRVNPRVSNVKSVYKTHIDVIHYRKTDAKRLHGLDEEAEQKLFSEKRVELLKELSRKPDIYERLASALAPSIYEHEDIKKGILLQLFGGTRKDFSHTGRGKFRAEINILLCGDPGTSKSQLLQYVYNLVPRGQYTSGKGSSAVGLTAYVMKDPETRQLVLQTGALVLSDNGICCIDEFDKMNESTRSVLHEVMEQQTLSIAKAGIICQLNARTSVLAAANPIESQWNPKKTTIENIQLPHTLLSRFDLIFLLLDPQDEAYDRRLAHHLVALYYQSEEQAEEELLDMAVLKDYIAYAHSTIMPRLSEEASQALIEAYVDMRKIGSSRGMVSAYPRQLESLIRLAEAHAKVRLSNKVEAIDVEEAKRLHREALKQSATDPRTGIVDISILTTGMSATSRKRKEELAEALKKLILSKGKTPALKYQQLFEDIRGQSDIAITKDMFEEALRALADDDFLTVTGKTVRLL
The test is described as follows: Induction of ubiquitination of MCM4 in human NCI-H1975 cells incubated for 24 hrs by immunoblot analysis (reference value: 1). The class given is cell-based.

The target of test [7] is T1, DNA replication licensing factor MCM6 (Homo sapiens). The test is described as follows: Induction of ubiquitination of MCM6 in human NCI-H1975 cells in presence of MG132 incubated for 48 hrs followed by MG132 addition and measured after 12 hrs by immunoblot analysis (reference value: 1.8). It is filed as cell-based.
In test [8] the test system is DNA replication licensing factor MCM2 (Homo sapiens), P49736 [Q341A]. The test can be described thus: Induction of ubiquitination of FLAG-tagged MCM2 Q341A mutant (unknown origin) expressed in human 293T cells incubated for 4 hrs by magnetic beads technique based immunoblot analysis. Conditions: HEK-293T. It is filed as cell-based.
Sequence of DNA replication licensing factor MCM2 (Homo sapiens), P49736 [Q341A] (P49736 whole entry Q341A): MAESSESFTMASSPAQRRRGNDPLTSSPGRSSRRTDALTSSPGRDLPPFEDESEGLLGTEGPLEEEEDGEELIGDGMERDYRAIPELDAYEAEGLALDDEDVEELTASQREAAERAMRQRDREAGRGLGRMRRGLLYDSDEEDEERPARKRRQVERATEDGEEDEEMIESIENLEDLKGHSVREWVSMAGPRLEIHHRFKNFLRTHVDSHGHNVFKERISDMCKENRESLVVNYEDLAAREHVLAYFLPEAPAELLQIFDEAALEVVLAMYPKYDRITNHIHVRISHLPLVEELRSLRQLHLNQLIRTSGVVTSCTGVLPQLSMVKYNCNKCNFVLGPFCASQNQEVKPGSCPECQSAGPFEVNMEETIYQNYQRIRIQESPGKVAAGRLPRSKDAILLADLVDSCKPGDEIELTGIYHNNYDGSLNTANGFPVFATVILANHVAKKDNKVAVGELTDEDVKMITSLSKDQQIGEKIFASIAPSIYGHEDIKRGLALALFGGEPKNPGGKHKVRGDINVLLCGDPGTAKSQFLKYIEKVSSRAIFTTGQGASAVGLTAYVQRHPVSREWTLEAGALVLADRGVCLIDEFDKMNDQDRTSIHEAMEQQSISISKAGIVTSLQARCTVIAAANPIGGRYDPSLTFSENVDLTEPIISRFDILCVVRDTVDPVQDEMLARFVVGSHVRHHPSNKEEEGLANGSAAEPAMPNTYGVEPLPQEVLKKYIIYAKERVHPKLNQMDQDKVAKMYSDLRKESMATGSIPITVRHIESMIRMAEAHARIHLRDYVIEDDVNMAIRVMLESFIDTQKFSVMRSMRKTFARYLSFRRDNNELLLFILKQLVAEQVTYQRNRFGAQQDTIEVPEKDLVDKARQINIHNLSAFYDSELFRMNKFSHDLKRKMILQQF

Sequence of DNA replication licensing factor MCM2 (Homo sapiens) (P49736 whole entry): as the sequence (P49736 whole entry Q341A) above, with A341Q counted along it

For `Cc1oc2c(c1C(=O)NCCCn1ccnc1)C(=O)c1ccccc1C2=O`, the outcome in test [1], in test [2] and in test [8] was Active. The Activity in test [3] worked out at 0.7; in test [4], 0.5; in test [5], 0.1; in test [6], 0.4; in test [7], 0.5.
